Source: patent US5977133A, “Pyridone antibiotic with improved safety profile” (priority 1998, dated 1999)
Where a name gives a salt, the structure may show the parent alone.

What was measured:
Format in all cases: cell-based
H. pylori = assay: In vitro MIC, agar dilution; conditions: Helicobacter pylori
Klebsiella spp. = assay: In vitro MIC, agar dilution; conditions: Klebsiella
Providencia spp. = assay: In vitro MIC, agar dilution; conditions: Providencia
C. freundii = assay: In vitro MIC, agar dilution; conditions: Citrobacter freundii
Enterococcus spp. (VanR) = assay: In vitro MIC, agar dilution; conditions: Enterococcus
C. perfringens = assay: microbe, parasite or virus in culture; conditions: Clostridium perfringens
S. epidermidis (CiproS) = assay: In vitro MIC, agar dilution; conditions: Staphylococcus epidermidis
H. influenzae = assay: In vitro MIC, agar dilution; conditions: Haemophilus influenzae
E. faecium (CiproS) = assay: In vitro MIC, agar dilution; conditions: Enterococcus faecium
E. faecalis (VanS) = assay: In vitro MIC, agar dilution; conditions: Enterococcus faecalis
P. aeruginosa (CiproS) = assay: In vitro MIC, agar dilution; conditions: Pseudomonas aeruginosa
Shigella spp. = assay: microbe, parasite or virus in culture; conditions: read-out: MIC Range
S. pneumoniae (PenS) = assay: In vitro MIC, agar dilution; conditions: Streptococcus pneumoniae
E. faecium (VanS) = assay: In vitro MIC, agar dilution; conditions: Enterococcus faecium
E. coli = assay: In vitro MIC, agar dilution; conditions: Escherichia coli, 25 isolates
Experimental: (§1) Each plate was inoculated with 1:100 (or 1:10 for slow-growing strains, primarily Micrococcus and Streptococcus) dilutions of up to 32 different microorganisms, using a Steers replicator block calibrated to deliver approximately 10^4 colony forming units (CFU's). The inoculated plates were incubated at from about 35° C. to about 37 ° C. for approximately 20-24 hours. In addition, a control plate using BHI agar containing no test compound was prepared and incubated at the beginning and at the end of each test. The quinolone antibacterial ciprofloxacin was used as a control ("Cntl").
(§2) The numbers below the microorganism species indicate the nunbers of isolates tested. […] The MIC is defined as the lowest concentration of test compound yielding no growth (a slight haze or sparsely isolated colonies at the inoculum spot) as compared to the growth control containing no test compound.

Salmonella spp. = assay: In vitro MIC, agar dilution; conditions: 23 isolates
Experimental: as §1, §2

Legionella spp. = assay: microbe, parasite or virus in culture; conditions: Legionella
M. pneumoniae = assay: In vitro MIC, agar dilution; conditions: Mycoplasmoides pneumoniae, read-out: MIC Range
S. aureus (CiproS) = assay: In vitro MIC, agar dilution; conditions: Staphylococcus aureus
B. fragilis = assay: In vitro MIC, agar dilution; conditions: Bacteroides fragilis
M. catarrhalis = assay: In vitro MIC, agar dilution; conditions: Moraxella catarrhalis
S. pneumoniae (PenR) = assay: In vitro MIC, agar dilution; conditions: Streptococcus pneumoniae
P. mirabilis = assay: In vitro MIC, agar dilution; conditions: Proteus mirabilis
Enterobacter spp. = assay: In vitro MIC, agar dilution; conditions: Enterobacter
C. difficile = assay: In vitro MIC, agar dilution; conditions: Clostridioides difficile
S. pneumoniae (CiproR) = assay: In vitro MIC, agar dilution; conditions: Streptococcus pneumoniae, read-out: MIC Range
E. faecium (CiproR) = assay: In vitro MIC, agar dilution; conditions: Enterococcus faecium, read-out: MIC Range
P. aeruginosa (CiproR) = assay: In vitro MIC, agar dilution; conditions: Pseudomonas aeruginosa
M. avium = assay: In vitro MIC, agar dilution; conditions: Mycobacterium avium
S. aureus (CiproR) = assay: In vitro MIC, agar dilution; conditions: Staphylococcus aureus
S. pyogenes = assay: In vitro MIC, agar dilution; conditions: Streptococcus pyogenes
N. gonorrhoeae = assay: In vitro MIC, agar dilution; conditions: Neisseria gonorrhoeae
S. epidermidis (CiproR) = assay: In vitro MIC, agar dilution; conditions: Staphylococcus epidermidis

Cc1c(N2C[C@@H]3CCCN[C@@H]3C2)c(F)cn2c(=O)c(C(=O)O)cc(C3CC3)c12 [Example 4, 1-cyclopropyl-8-(S,S-2,8-diaza-8-bicyclo[4.3.0]nonyl)-7-fluoro-4H-9-methyl-4-oxo-quinolizine-3-carboxylic acid hydrochloride]
MIC50 (H. pylori): 0.12 µg/mL
MIC90 (H. pylori): 0.25 µg/mL
MIC (H. pylori; read-out: MIC Range): 0.06 to 0.25 µg/mL
MIC50 (Klebsiella spp.): 0.06 µg/mL
MIC90 (Klebsiella spp.): 0.06 µg/mL
MIC (Klebsiella spp.; read-out: MIC Range): 0.008 to 0.25 µg/mL
MIC50 (Providencia spp.): 0.03 µg/mL
MIC90 (Providencia spp.): 0.12 µg/mL
MIC (Providencia spp.; read-out: MIC Range): 0.008 to 0.25 µg/mL
MIC50 (C. freundii): 0.03 µg/mL
MIC90 (C. freundii): 0.25 µg/mL
MIC (C. freundii; read-out: MIC Range): 0.015 to 0.25 µg/mL
MIC50 (Enterococcus spp. (VanR)): 1 µg/mL
MIC90 (Enterococcus spp. (VanR)): 1 µg/mL
MIC (Enterococcus spp. (VanR); read-out: MIC Range): 0.06 to 4 µg/mL
MIC50 (C. perfringens): 0.5 µg/mL
MIC90 (C. perfringens): 1 µg/mL
MIC (C. perfringens; read-out: MIC Range): 0.25 to 1 µg/mL
MIC50 (S. epidermidis (CiproS)): 0.03 µg/mL
MIC90 (S. epidermidis (CiproS)): 0.03 µg/mL
MIC (S. epidermidis (CiproS); read-out: MIC Range): 0.015 to 0.03 µg/mL
MIC50 (H. influenzae): 0.015 µg/mL
MIC90 (H. influenzae): 0.015 µg/mL
MIC (H. influenzae; read-out: MIC Range): 0.004 to 0.015 µg/mL
MIC50 (E. faecium (CiproS)): 0.5 µg/mL
MIC90 (E. faecium (CiproS)): 1 µg/mL
MIC (E. faecium (CiproS); read-out: MIC Range): 0.25 to 1 µg/mL
MIC50 (E. faecalis (VanS)): 0.12 µg/mL
MIC90 (E. faecalis (VanS)): 0.25 µg/mL
MIC (E. faecalis (VanS); read-out: MIC Range): 0.12 to 0.25 µg/mL
MIC50 (P. aeruginosa (CiproS)): 0.12 µg/mL
MIC90 (P. aeruginosa (CiproS)): 1 µg/mL
MIC (P. aeruginosa (CiproS); read-out: MIC Range): 0.03 to 2 µg/mL
MIC (Shigella spp.): 0.004 to 0.015 µg/mL
MIC50 (S. pneumoniae (PenS)): 0.06 µg/mL
MIC90 (S. pneumoniae (PenS)): 0.12 µg/mL
MIC (S. pneumoniae (PenS); read-out: MIC Range): 0.06 to 0.12 µg/mL
MIC50 (E. faecium (VanS)): 0.5 µg/mL
MIC90 (E. faecium (VanS)): 1 µg/mL
MIC (E. faecium (VanS); read-out: MIC Range): 0.12 to 1 µg/mL
MIC (E. coli): ≤ 0.008 µg/mL
MIC50 (E. coli; read-out: MIC50): ≤ 0.008 µg/mL
MIC90 (E. coli; read-out: MIC90): ≤ 0.008 µg/mL
MIC (Salmonella spp.): 0.004 to 0.12 µg/mL
MIC50 (Salmonella spp.; read-out: MIC50): 0.03 µg/mL
MIC90 (Salmonella spp.; read-out: MIC90): 0.06 µg/mL
MIC50 (Legionella spp.): 0.25 µg/mL
MIC90 (Legionella spp.): 0.25 µg/mL
MIC (Legionella spp.; read-out: MIC Range): 0.25 to 0.5 µg/mL
MIC (M. pneumoniae): 0.015 to 0.03 µg/mL
MIC50 (S. aureus (CiproS)): 0.002 µg/mL
MIC90 (S. aureus (CiproS)): 0.002 µg/mL
MIC (S. aureus (CiproS); read-out: MIC Range): 0.0005 to 0.002 µg/mL
MIC50 (B. fragilis): 0.25 µg/mL
MIC90 (B. fragilis): 0.25 µg/mL
MIC (B. fragilis; read-out: MIC Range): 0.12 to 0.5 µg/mL
MIC50 (M. catarrhalis): 0.015 µg/mL
MIC90 (M. catarrhalis): 0.03 µg/mL
MIC (M. catarrhalis; read-out: MIC Range): 0.015 to 0.03 µg/mL
MIC50 (S. pneumoniae (PenR)): 0.03 µg/mL
MIC90 (S. pneumoniae (PenR)): 0.03 µg/mL
MIC (S. pneumoniae (PenR); read-out: MIC Range): 0.008 to 0.03 µg/mL
MIC50 (P. mirabilis): 0.06 µg/mL
MIC90 (P. mirabilis): 0.12 µg/mL
MIC (P. mirabilis; read-out: MIC Range): 0.03 to 0.12 µg/mL
MIC50 (Enterobacter spp.): 0.03 µg/mL
MIC90 (Enterobacter spp.): 0.12 µg/mL
MIC (Enterobacter spp.; read-out: MIC Range): 0.015 to 0.12 µg/mL
MIC50 (C. difficile): 0.25 µg/mL
MIC90 (C. difficile): 0.25 µg/mL
MIC (C. difficile; read-out: MIC Range): 0.03 to 0.25 µg/mL
MIC (S. pneumoniae (CiproR)): 0.12 to 0.25 µg/mL
MIC (E. faecium (CiproR)): 0.5 to 4 µg/mL
MIC50 (P. aeruginosa (CiproR)): 8 µg/mL
MIC90 (P. aeruginosa (CiproR)): 16 µg/mL
MIC (P. aeruginosa (CiproR); read-out: MIC Range): 4 to 64 µg/mL
MIC50 (M. avium): 0.25 µg/mL
MIC90 (M. avium): 1 µg/mL
MIC (M. avium; read-out: MIC Range): 0.25 to 4 µg/mL
MIC50 (S. aureus (CiproR)): 0.06 µg/mL
MIC90 (S. aureus (CiproR)): 0.25 µg/mL
MIC (S. aureus (CiproR); read-out: MIC Range): 0.008 to 0.5 µg/mL
MIC50 (S. pyogenes): 0.06 µg/mL
MIC90 (S. pyogenes): 0.06 µg/mL
MIC (S. pyogenes; read-out: MIC Range): 0.03 to 0.06 µg/mL
MIC50 (N. gonorrhoeae): 0.002 µg/mL
MIC90 (N. gonorrhoeae): 0.015 µg/mL
MIC (N. gonorrhoeae; read-out: MIC Range): 0.002 to 0.015 µg/mL
MIC50 (S. epidermidis (CiproR)): 0.25 µg/mL
MIC90 (S. epidermidis (CiproR)): 0.5 µg/mL
MIC (S. epidermidis (CiproR); read-out: MIC Range): 0.12 to 4 µg/mL
